Measured values taken from US4814336A, “Method of treating a vascular obstructive lesion resulting from restricted blood circulation” (CHINOIN Gyogyszer es Vegyeszeti Termekek Gyara Rt, priority 1985, dated 1989).

Tests used:
[1] = test system: contracted (shrunken) erythrocytes; assay: In vitro filtrability (filtration half-time T1/2) of contracted (shrunken) erythrocytes, method of Teitel; assay type: cell-based, human; settings: from ID50
Method: FIG. 1 is a set of two graphs in which the filtration half-times (T1/2) for contracted (shrunken) erythrocytes are plotted along the Y-axis as a percentage of the filtration half-time for normal erythrocytes (control) against doses of respectively Trental and Depogen.
(§1) For the examination of the in vitro filtrability of the erythrocytes the method of Teitel (Nouv. Rev. Franc. Haematol. 7. 195 (1967)) was used where the filtration rate of concentrated erythrocyte suspension was measured. In the test fresh, normal erythrocytes, fresh in hyperosmotic solution shrunken erythrocytes and erythrocytes stored in CPD blood-conserving solution contracted for 30 days at +4° C. were used. The results are given in FIGS. 1 and 2 (the filtrability of the contracted erythrocytes and that of the erythrocytes stored for 30 days were given as the % of the filtrability of the control fresh, normal erythrocytes.)
(§2) The effect depends in the case of both drugs on the doses. The optimal effect may be achieved with Depogen in lower concentration interval (0.5 to 1.5 μumol) than in case of Trental (5 to 10 μumoles).

[2] = test system: erythrocytes stored for 30 days; assay: In vitro filtrability (filtration half-time T1/2) of erythrocytes stored for 30 days, method of Teitel; assay type: cell-based, human; settings: from ID50
Method: FIG. 2 is a set of two graphs in which the filtration half-time (T1/2) for erythrocytes stored for 30 days are plotted along the Y-axis as a percentage of the filtration half-time for normal erythrocytes (control) against doses of respectively Trental and Depogen.
as §1, §2

[3] = test system: erythrocytes; assay: In vitro filtrability of erythrocytes (filtration half-time), statements on both erythrocyte types; assay type: cell-based, human; settings: for filtrability of the erythrocytes (result in words): FIGS. 1 and 2, T1/2 decreased
Method: as §1, §2

[4] = test system: erythrocytes of patients with lower leg and cerebral obliterating vascular diseases; assay: Erythrocyte filtrability (T1/2) of patients with lower leg and cerebral obliterating vascular diseases after 10 days treatment; assay type: in vivo, human patients; settings: 450 mg/day orally; for T1/2 average of erythrocyte filtration after treatment: before treatment 18.15 min, healthy control 8.7 min
Method: (§3) The clinical examinations carried out on patients suffering from lower leg and cerebral obliterating vascular diseases gave the following results: 41 patients were treated for 10 days in a dose of 450 mg/day Depogen or Trental orally (beside 5 healthy controls).

[5] = test system: patients suffering from cerebral obliterating vascular diseases; assay: Clinical examination, cerebral obliterating vascular disease, symptoms; assay type: in vivo, human patients; settings: 450 mg/day orally, 10 days
Method: as §3

[6] = test system: patients suffering from lower leg obliterating vascular diseases; assay: Clinical examination, lower leg obliteration; assay type: in vivo, human patients; settings: 450 mg/day orally, 10 days; Depogen compared with Trental
Method: as §3

[7] = test system: patients suffering from cerebral obliterating vascular diseases; assay: EEG examination; assay type: in vivo, human patients; settings: 450 mg/day orally, 10 days; for EEG deteriorated (number of patients) / EEG improved (number of patients) / EEG unchanged (number of patients): total 9 (Trental), 8 (Depogen)
Method: as §3

[8] = test system: patients suffering from cerebral obliterating vascular diseases; assay: ECHO examination; assay type: in vivo, human patients; settings: 450 mg/day orally, 10 days; for ECHO deteriorated (number of patients) / ECHO improved (number of patients) / ECHO unchanged (number of patients): total 9 (Trental), 8 (Depogen)
Method: as §3

[9] = test system: extremital vascular resistence; settings: patients, doses up to 300 mg/day; cited from earlier work
[10] = test system: erythrocytes; settings: Angiology 36, 4, 226-234 (1985); cited from earlier work

Structure (SMILES)	filtrability of the erythrocytes (result in words) ([3]; in vitro)	filtrability of the erythrocytes after treatment (result in words) [4]	T1/2 average of erythrocyte filtration after treatment [4] [min]	effect in lower leg obliteration [6]	EEG improved (% of patients) [7] [%]	EEG unchanged (% of patients) [7] [%]	EEG deteriorated (number of patients) [7]	EEG improved (number of patients) [7]	EEG unchanged (number of patients) [7]	ECHO unchanged (% of patients) [8] [%]	ECHO deteriorated (number of patients) [8]	ECHO improved (number of patients) [8]	ECHO unchanged (number of patients) [8]	other results
CCOc1ccc(CC2=NCCc3cc(OCC)c(OCC)cc32)cc1OCC [Depogen, 1-(3',4'-diethoxybenzyl)-6,7-diethoxy-3,4-dihydroisoquinolinium-theophyllin-7-acetate]	increase the filtrability of the erythrocytes significantly	the filtrability of the erythrocytes has been normalized	9.53	the two drugs have the same effect	87.5	12.5	0	7	1	87.5	0	1	7	Rel. activity Depogen/Trental [1]: 16.3; Rel. activity Depogen/Trental [2]: 31.6; times lower concentration exerting the same effect as Trental ([3]; in vitro, concentration for the half-maximal effect): 10 to 25 times; optimal effect on filtrability, concentration interval ([3]; in vitro, Depogen): 0.5 to 1.5 μumol; filtrability of pathological human erythrocytes (result in words) ([3]; proved by both ex vitro and in vivo tests): increases the filtrability of the pathological human erythrocytes significantly; effect in cerebral vascular disease, symptoms [5]: the symptoms have decreased; ECHO improved (% of patients) [8]: 12.5%; peripheral vasodilating effect and extremital vascular resistence [9]: has a peripheral vasodilating effect and decreases the extremital vascular resistence
CC(=O)CCCCn1c(=O)c2c(ncn2C)n(C)c1=O [Trental, 3,7-dihydro-3,7-dimethyl-1--(5-oxohexyl)-1H-purine-2,6-dione, reference compound]	increase the filtrability of the erythrocytes significantly	the treatment was also in this case successful	12.1	the two drugs have the same effect	44.5	55.5	0	4	5	100	0	0	9	optimal effect on filtrability, concentration interval ([3]; in vitro, Trental): 5 to 10 μumoles; rheological parameters of the blood, plasticity of the erythrocytes [10]: improves some rheological parameters of the blood, first of all the plasticity of the erythrocytes
